Data: patent US8143428B2, “Heteroaryl sulfones and sulfonamides and therapeutic uses thereof” (Temple University-Of The Commonwealth System of Higher …, priority 2004, dated 2012)

Assays:
Format in all cases: cell-based
[1] = tested on: androgen receptor negative prostate (DU145) cell line; experiment: Growth of human tumor cells in culture, DU145 (Trypan blue exclusion); details: 96 h continuous treatment, viable cells by Trypan blue exclusion
Protocol: (§1) The effect of compounds according to Formula I on the growth of human tumor cells in culture was evaluated using androgen receptor negative prostate (DU145), colo-rectal (DLD-1), non-small cell lung carcinoma (H157), estrogen receptor negative breast (BT20) and chronic myeloid leukemia (K562) cell lines. All cell cultures were maintained at 37° C. in a humidified atmosphere of 5% CO2.
(§2) Cells were treated with compounds according to Formula I at five different concentrations (1-100 μM range) for each compound. The dose response of each cell line was established by determining the number of viable cells after 96 h of continuous treatment against each of the different test concentrations of each compound. The determination of viable cells was done by the by the Trypan blue exclusion method. Activity for each compound at each concentration is reported as a percentage of cells that remain viable.

JNK1 = target: T1, JNK1 (Homo sapiens, UniProt P45983); experiment: Activation of Jun kinase: JNK1 immunoprecipitated from treated BT-20 cells, phosphorylation of GST-c-Jun; details: 50 and 100 μM in DMSO, 12 hours at 37° C., compared to DMSO controls
T1 construct: JNK1 in 100 μg of cell lysate was immunoprecipitated; endogenous in cells; host or cells: BT-20 cells
T1 sequence (P45983 whole entry): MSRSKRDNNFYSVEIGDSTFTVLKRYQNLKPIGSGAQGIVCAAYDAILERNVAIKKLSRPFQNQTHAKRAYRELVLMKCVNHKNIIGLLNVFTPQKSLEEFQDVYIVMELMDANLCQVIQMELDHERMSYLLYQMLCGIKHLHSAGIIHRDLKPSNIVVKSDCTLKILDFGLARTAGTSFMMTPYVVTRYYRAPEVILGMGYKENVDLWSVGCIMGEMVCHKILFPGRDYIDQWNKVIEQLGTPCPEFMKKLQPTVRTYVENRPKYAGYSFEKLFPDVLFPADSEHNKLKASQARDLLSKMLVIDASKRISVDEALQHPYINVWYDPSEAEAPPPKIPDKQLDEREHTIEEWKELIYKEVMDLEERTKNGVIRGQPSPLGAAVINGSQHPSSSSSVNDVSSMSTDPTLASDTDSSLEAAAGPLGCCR
Protocol: The compounds of Examples 1, 2, 7, 8 and 9 from Table 3 were analyzed for activation of the Jun kinase signaling pathway. The selected compounds were added to BT-20 cells at concentrations of 50 and 100 μM in dimethyl sulfoxide (DMSO) and incubated for 12 hours at 37° C. The cells were harvested and lysed after 12 hours of treatment. The cell lysates were then analyzed for c-Jun kinase activity by immunoprecipitating JNK1 and assessing the ability of these immunoprecipitates to phosphorylate GST-linked c-Jun. Lysis of the cells was performed after incubation with […], using the lysis buffer [25 mM N-2-hydroxyethylpiperazine-N′-2-ethanesulfonic acid (HEPES) (pH 7.6), 0.1% Triton, 300 mM NaCl, 20 mM β-glycerophosphate, 1.5 mM MgCl2, 0.2 mM ethylenediaminetetraacetic acid (EDTA), 0.5 mM dithiothreitol (DTT), 0.2 mM Na3VO4, 100 μM phenylmethylsulfonyl fluoride (PMSF), 1 mM benzamidine, 2 μg/mL leupeptin and 4 μg/mL aprotinin]. Protein concentrations were measured using Bio-Rad protein assay reagent. JNK1 in 100 μg of cell lysate was immunoprecipitated by incubating […] of lysate protein with […] of the JNK1 polyclonal antibody (Santa Cruz Biotechnology, Inc.,) for 1 h followed by an additional incubation with […] of protein A-Sepharose (Pharmacia) for 1 h. The immune complex bound protein A-Sepharose beads were washed twice with the lysis buffer and twice with JNK buffer (20 mM HEPES, pH 7.6, 20 mM β-glycerophosphate, 10 mM MgCl2 and […] Na3VO4. The kinase reaction was carried out by resuspending the complex bound protein A-Sepharose beads in […] of JNK buffer containing […] [γ-^32P]ATP (5000 CPM/pmol) and incubating them for 20 min at 30° C. using 5 mg GST-c-Jun as substrate. The reaction was terminated by the addition of Laemmli's buffer. The samples were then boiled for 3 min. The phosphorylated GST-c-Jun was then separated on 12% SDS-PAGE. Following the separation, the gel was dried, and an autoradiogram was developed which is reproduced in FIG. 1.

[2] = tested on: chronic myeloid leukemia (K562) cell line; experiment: Growth of human tumor cells in culture, K562 (Trypan blue exclusion); details: 96 h continuous treatment, viable cells by Trypan blue exclusion
Protocol: as §1, §2

[3] = tested on: colo-rectal (DLD-1) cell line; experiment: Growth of human tumor cells in culture, DLD-1 (Trypan blue exclusion); details: DLD-1 cells, 96 h continuous treatment, viable cells by Trypan blue exclusion
Protocol: as §1, §2

[4] = tested on: non-small cell lung carcinoma (H157) cell line; experiment: Growth of human tumor cells in culture, H157 (Trypan blue exclusion); details: viable cells by Trypan blue exclusion
Protocol: as §1, §2

[5] = tested on: estrogen receptor negative breast (BT20) cell line; experiment: Growth of human tumor cells in culture, BT20 (Trypan blue exclusion); details: 96 h continuous treatment, viable cells by Trypan blue exclusion
Protocol: as §1, §2

[6] = Homo sapiens, NCI-H157, 96 h continuous treatment

GI50 ([1]; Homo sapiens, DU-145, 96 h) [µM]	c-Jun kinase activity: phosphorylation of GST-c-Jun by immunoprecipitated JNK1 (autoradiogram, FIG. 1) (JNK1)	GI50 ([2]; Homo sapiens, K562, 96 h) [µM]	GI50 ([3]; Homo sapiens, DLD-1, 96 h) [µM]	GI50 [4, 6] [µM]	GI50 ([5]; Homo sapiens, BT-20, 96 h) [µM]	GI50 [1] [µM]	GI50 [2] [µM]	GI50 [3] [µM]	GI50 ([4]; 96 h continuous treatment) [µM]	GI50 [5] [µM]	SMILES
15	hyperphosphorylated	14	20	18	16						COc1ccc(NS(=O)(=O)c2cc3cc(Br)ccc3oc2=O)cc1 [Example 1, 6-Bromo-N-(4-methoxyphenyl)-2-oxo-2H-chromene-3-sulfonamide]
22	hyperphosphorylated	23	32	28	27						COc1ccc(NS(=O)(=O)c2cc3cc(Cl)ccc3oc2=O)cc1 [Example 2, 6-Chloro-N-(4-methoxyphenyl)-2-oxo-2H-chromene-3-sulfonamide]
						57	48	78	74	52	CCOc1cccc2cc(S(=O)(=O)Nc3ccc(OC)cc3)c(=O)oc12 [Example 3, 8-Ethoxy-N-(4-methoxyphenyl)-2-oxo-2H-chromene-3-sulfonamide]
42		51	82	76	65						COc1ccc(NS(=O)(=O)c2cc3cc(Cl)ccc3oc2=O)cc1O [Example 4, 6-Chloro-N-(3-hydroxy-4-methoxyphenyl)-2-oxo-2H-chromene-3-sulfonamide]
48		42	80	72	54						CCOc1cccc2cc(S(=O)(=O)Nc3ccc(F)c(N)c3)c(=O)oc12 [Example 5, N-(3-Amino-4-fluorophenyl)-8-ethoxy-2-oxo-2H-chromene-3-sulfonamide]
56		44	92	78	68						COc1ccc2oc(=O)c(S(=O)(=O)Nc3ccc(F)c(N)c3)cc2c1 [Example 6, N-(3-Amino-4-fluorophenyl)-6-methoxy-2-oxo-2H-chromene-3-sulfonamide]
25	hyperphosphorylated	27	38	32	18						COc1ccc2oc(=O)c(S(=O)(=O)Nc3ccc(Br)cc3)cc2c1 [Example 7, N-(4-Bromophenyl)-6-methoxy-2-oxo-2H-chromene-3-sulfonamide]
52	hyperphosphorylated	58	85	74	64						CCOc1cccc2cc(S(=O)(=O)Nc3ccc(OC)cc3)c(=O)oc12 [Example 8, 8-Ethoxy-N-(4-methoxyphenyl)-2-oxo-2H-chromene-3-sulfonamide]
14	hyperphosphorylated	11	18	16	17						O=c1oc2c(Cl)cccc2cc1S(=O)(=O)Nc1ccc(Br)cc1 [Example 9, N-(4-Bromophenyl)-8-chloro-2-oxo-2H-chromene-3-sulfonamide]
12		16	14	15	12						O=c1oc2c(Br)cccc2cc1S(=O)(=O)Nc1ccc(Br)cc1 [Example 10, N-(4-Bromophenyl)-8-bromo-2-oxo-2H-chromene-3-sulfonamide]
